This is an account of results in patent US20250314644A1, “METHODS COMPRISING DETECTION OF ADP-HEPTOSE” (CHILDREN'S HOSPITAL MEDICAL CENTER, priority 2023, published 2025).

The experiment deals with TIFA-TdT THP1 cells. Kind of experiment: TIFAsome formation assay. Format: cell-based, human. How it is done: THP1-TIFA-tdTomato cells (1*10^6) were stimulated with various human plasma samples (100 μl) for 30 mins in a 37° C. water bath in final volume of 200 μl. Cells were harvested, washed with PBS+2% FBS+2 mM EDTA (MACS buffer) and fixed with 4% Paraformaldehyde (PFA, Cat no. 15710, Electron Microscopy Sciences). After fixation, cells were washed again and then resuspended in 50 μl MACS buffer. Cells were then analyzed for TIFAsome formation on an Amnis Imagestream Mk II Imaging Flow Cytometer ISX-100 (Luminex) according to the manufacturer's instructions. Downstream analysis was performed in IDEAS analysis software (Amnis). TIFAsome positive cells were identified by gating on Mean Pixel Intensity and Max Pixel Intensity for bright puncta analysis using the IDEAS Image Data Exploration and Analysis Software. A standard curve was prepared by calculating % TIFAsome positive cells using samples which were stimulated with serial increasing doses of ADP-heptose covering the concentration range of 10 to 100,000 ng/ml. […]
THP1-TIFA-tdTomato-GFP cells were suspended at 1×10^6 cells/mL and treated with either human plasma samples (50 μl) in final volume of 200 μl for 30 minutes, or the inhibitor for 1 hour to allow for entry into the cell and then stimulated with ADP-heptose for 30 minutes. […] Images were acquired using a Nikon Ni-E Upright widefield fluorescent scope and analyzed using Nikon Elements.

As to `Nc1ncnc2c1ncn2[C@@H]1O[C@H](COP(=O)(O)OP(=O)(O)O[C@@H]2O[C@H]([C@H](O)CO)[C@@H](O)[C@H](O)[C@@H]2O)[C@@H](O)[C@H]1O` [ADP-heptose, ADP-D-glycero-β-D-manno-heptose], the “TIFAsome formation (discrete puncta in the cytoplasm)” value is reported as “rapidly induce TIFAsome formation”.
